Results on 4 molecules are retold here after patent US5051253A, “Use of polyacrylates to reduce proteolytic activity in the human intestinal tract” (Reckitt & Colman Products Limited, priority 1988, dated 1991).

Like-named read-outs stand apart in the source and are kept apart here.

For the assay, the system named is faecal proteolytic activity. The experiment in a line: Human faecal proteolytic activity (in-vitro), succinyl albumin substrate. The class given is biochemical. The method, then:
Human faecal extracts (from asymptomatic volunteers) were obtained by suspending samples of stool in 4 volumes of M/15M KH2 PO4 /Na2 HPO4 pH 7.5 containing 50 mM NaCl and centrifuging at 10,000 g for 15 minutes at 4° C. The supernatant was retained as the faecal extract.
Proteolytic activity was measured using a modification of the method of Lin et al, J.Biol.Chem. 244 (4), 789-793 (1969), i.e. a sensitive trinitrobenzene sulphonic acid assay for formation of new peptide N-terminals using succinyl albumin as substrate. Faecal extract containing one unit of protease activity (equivalent to 1 μg trypsin) was mixed with 0.5 ml buffer (M/15 phosphate pH 7.5) or inhibitor. Substrate (0.5 ml, 8 mgml^-1 succinyl albumin) was added to start the reaction and samples were incubated for 30 minutes at 37° C. Four per cent (w/v) sodium bicarbonate (0.5 ml) and 0.05% (w/v) trinitrobenzene sulphonic acid were added to trinitrophenylate the free amino groups formed and samples were incubated at 50° C. for 10 minutes to develop colour.
10% (w/v) Sodium dodecyl sulphate (0.5 ml) and 1M HCl (0.25 ml) were added to complete the reaction. Absorbance at 340 nm was measured. All samples were compared with heat inactivated faecal extract controls (100° C., 10 minutes).
A linear increase in N-terminals formed by proteolytic cleavage of peptide bonds was found over the first 30 minutes of digestion. […] Proteolytic activity in faecal extracts against succinyl albumin was inhibited by soybean trypsin inhibitor (1 μg) and P.M.S.F. (1 mM) but not by iodoacetamide (50 mM) or Na2 E.D.T.A. (10 mM). In view of this, levels of faecal protease activity were subsequently quantified as equivalents of porcine pancreatic trypsin activity by weight.

`O=C(O)CN(CCN(CC(=O)O)CC(=O)O)CC(=O)O` [Na2 E.D.T.A.]: the “Inhibition of proteolytic activity in faecal extracts against succinyl albumin” value (“Inhibition of proteolytic activity” for short) is reported as “not”.
`O=S(=O)(F)Cc1ccccc1` [P.M.S.F., phenylmethylsulphonyl fluoride]: the “Inhibition of proteolytic activity” value (1 mM) is given as “inhibited”.
As to `NC(=O)CI` [iodoacetamide], the “Inhibition of proteolytic activity” value (50 mM) was “not”.

B1: soybean trypsin inhibitor (protein, UniProt P01070 25-205, looked up)
Trypsin inhibitor A: DFVLDNEGNPLENGGTYYILSDITAFGGIRAAPTGNERCPLTVVQSRNELDKGIGTIISSPYRIRFIAEGHPLSLKFDSFAVIMLCVGIPTEWSVVEDLPEGPAVKIGENKDAMDGWFRLERVSDDEFNNYKLVFCPQQAEDDKCGDIGISIDHDDGTRRLVVSKNKPLVVQFQKLDKESL
With B1, the “Inhibition of proteolytic activity” value (1 μg) is listed as “inhibited”.
